The target in assay [1] is T1, recTsMFABP1 (Taenia solium, UniProt Q2XNL7). Briefly: Fluorometric ligand binding assay, recombinant TsMFABP1. The conditions noted are these: for Kd / Vmax: one-site saturation model, 25°C; for Kd: ligand 0.1-10 µM; for Vmax: rate calculated from relative fluorescence (Vmax = Fmax), ligand 0.1-10 µM (FA analogs) or 0.1-10 mM (retinol); for Vmax/K d (binding rate constant): ratio of Vmax to K d. The method, then: (§1) All the proteins were delipidated for 2 h using Sephadex-LH (Sigma-Aldrich) prior to assay. The ligand binding profile of the native and rTsMFABPs were detected spectrofluorometrically using fluorescent FA analogs, including 11-([5-dimethylaminonaphthalene-1-sulfonyl]amino)undecannoic acid (DAUDA), dansyl-DL-α-aminocaprylic acid (DACA) (Molecular Probes), retinol (Sigma-Aldrich) and naturally fluorescent cis-parinaric acid (cPnA; Molecular Probes). Fluorescence emission spectra were recorded at 25°C with a total volume of 200 µl per well using black 96-well Microfluor 1 plates and an Infinite M-200 automated multi-detector (Tecan). The emission and excitation wavelengths for DAUDA, DACA, retinol and cPnA were 519, 519, 325 and 420 nm, and 345, 350, 350 and 315 nm, respectively. We included the TsM 120-kDa protein (10 µM) and recombinant 18 kDa (5 µM; a subunit of the TsM 120-kDa protein), which were proven not to have FA-binding activity, as negative controls during the measurements. All fluorescent stock compounds (10 mM dissolved in ethanol) were stored at −20°C in a dark room and were freshly diluted in ethanol prior to use. The equilibrium dissociation constants (K d) of the proteins bound to DAUDA, retinol and cPnA were estimated by adding increasing concentrations of respective ligands (0.1–10 µM for FA analogs and 0.1–10 mM for retinol) in a micro-quartz plate. Fluorescence intensities were normalized to the peak fluorescence intensity and corrected for background fluorescence of the ligand alone at each concentration. Corrected data were analyzed using the one-site saturation model and best fit algorithm contained in SigmaPlot9 software (y = V max X/K m+X, where y is relative fluorescence and X is concentrations of lipid ligand. V max can be substituted as Fmax [maximum fluorescence]). Competition assays were carried out by monitoring the change in fluorescence intensity at the peak transmission wavelength measured for either rTsMFABPs:DAUDA, rTsMFABPs:retinol or rTsMFABPs:cPnA complex in the presence of 10-fold excess oleic acid.
(§2) The partially purified native and recombinant proteins were subjected to delipidation. Each of the proteins (1 µM) was used in a hydrophobic ligand binding assay against the polarity-sensitive fluorophore-tagged FA analogs (0.1 µM) and retinol (5 mM). […] The TsMFABP2 also bound to DAUDA, although its specific activity was lower than that of the TsMFABP1. […] The retinol-binding activity of rTsMFABP2 appeared to be higher than that of rTsMFABP1. […] No binding activity was detected in the reactions with the TsM 120-kDa and recombinant 18-kDa proteins, which were used as negative controls.

Assay [2] deals with T2, recTsMFABP2 (Taenia solium, UniProt F2WVQ3). Nature of the assay: Fluorometric ligand binding assay, recombinant TsMFABP2. The conditions noted are these: for Vmax: rate calculated from relative fluorescence (Vmax = Fmax), ligand 0.1-10 µM (FA analogs) or 0.1-10 mM (retinol); for Vmax/K d (binding rate constant): ratio of Vmax to K d. How it is done: as §1, §2
The target of assay [3] is T1, recTsMFABP1. Briefly: Fluorometric ligand binding assay, recombinant TsMFABP1. The conditions noted are these: rTsMFABP1:DAUDA complex; oleic acid 5 µM (Figure 2B); protein 1 µM, DAUDA 0.1 µM.
Assay [4] deals with T2, recTsMFABP2. Briefly: Fluorometric ligand binding assay, recombinant TsMFABP2. The conditions noted are these: rTsMFABP2:retinol complex; oleic acid 5 µM (Figure 2D); protein 1 µM, retinol 5 mM.
Setting [5] is: one-site saturation model, ligand 0.1-10 µM, 25°C, read-out: K d.
The mark [6] stands for this setting: one-site saturation model, 25°C.
Setting [7] is: protein 1 µM, FA analog 0.1 µM, data not shown.

Several values for one entry are separate records, joined by “and”; a condition that tells them apart may be missing. Equal entries are not always repeated. Where two headings read alike, the source gives them in different places.

T2 sequence (F2WVQ3 entry or part of it): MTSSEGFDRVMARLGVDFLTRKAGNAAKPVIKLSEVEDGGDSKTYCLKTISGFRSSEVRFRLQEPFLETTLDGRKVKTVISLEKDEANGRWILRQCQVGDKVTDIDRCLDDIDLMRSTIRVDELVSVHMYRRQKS
T1 sequence (Q2XNL7 entry or part of it): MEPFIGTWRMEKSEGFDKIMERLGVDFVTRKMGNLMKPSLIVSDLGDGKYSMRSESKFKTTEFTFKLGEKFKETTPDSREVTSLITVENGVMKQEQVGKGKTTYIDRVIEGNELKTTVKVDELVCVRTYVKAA

Consider `CN(C)c1cccc2c(S(=O)(=O)NCCCCCCCCCCC(=O)O)cccc12` [DAUDA, 11-([5-dimethylaminonaphthalene-1-sulfonyl]amino)undecannoic acid], for which the Kd at recTsMFABP1 [1] worked out at 2150 ± 140 nM; on recTsMFABP2 [2] (setting [5]), 9400 ± 890 nM. Also, the Vmax on recTsMFABP1 [1] is 299.5±3.0; on recTsMFABP2 [2] (setting [6]), 364.2±3.5. The “Vmax/K d (binding rate constant)” value on recTsMFABP1 [1] was 139.3 and 139.3±12.7; on recTsMFABP2 [2] it was 38.7 and 38.7±3.94.

For `CC\C=C/C=C/C=C/C=C\CCCCCCCC(=O)O` [cPnA, cis-parinaric acid], the values for the Kd at recTsMFABP1 [1] and on recTsMFABP2 [2] (setting [5]) were 280 ± 20 nM and 640 ± 40 nM, respectively. In addition, the values for the Vmax at recTsMFABP1 [1] and on recTsMFABP2 [2] (setting [6]) were 608.4±57.8 and 309.1±28.4, respectively. The “Vmax/K d (binding rate constant)” value at recTsMFABP1 [1] was 2172.9 and 2172.9±214.6; at recTsMFABP2 [2], 483.0 and 483.0±47.1.

Turning to `CCCCCCCC/C=C\CCCCCCCC(=O)O` [oleic acid], on recTsMFABP1 [3], the “Competition with DAUDA binding” value is “competitively inhibited by oleic acid in a dose-dependent manner”. Moreover, the “Competition with retinol binding” value on recTsMFABP2 [4] was “significant replacement of retinol from the binding site”.

With `CC1=C(/C=C/C(C)=C/C=C/C(C)=C/CO)C(C)(C)CCC1` [Retinol, retinol], the Vmax at recTsMFABP1 [1] is reported as 306.3±31.4; on recTsMFABP2 [2] (setting [6]) it was 207.1±19.6. The “Vmax/K d (binding rate constant)” value at recTsMFABP1 [1] is listed as 172.1±15.5; on recTsMFABP1 [1] (listed as retinol), 172.1; at recTsMFABP2 [2], 211.3±20.3; at recTsMFABP2 [2] (listed as retinol), 211.3. Also, the Kd at recTsMFABP2 [2] amounted to 980000 ± 80000 nM.

`CCCCCCC(NS(=O)(=O)c1cccc2c(N(C)C)cccc12)C(=O)O` (racemic) [DACA, dansyl-DL-α-aminocaprylic acid]: the “Binding (fluorescence interaction mode)” value at recTsMFABP1 [1] (setting [7]) and on recTsMFABP2 [2] (setting [7]) was “interaction modes comparable to those with DAUDA” in each case.

The values above are taken from publication PMC3493614, “Structural and Binding Properties of Two Paralogous Fatty Acid Binding Proteins of Taenia solium Metacestode” (PLoS Neglected Tropical Diseases, 2012).
